Measured values published in US20240133884A1, “COMPOSITIONS AND METHODS FOR DETECTING TRYPANOSOMA CRUZI INFECTION” (University of Georgia Research Foundation, Inc., priority 2022, published 2024).
“Also recorded” adds a separate entry of the source.

What was measured:
[1] = system: T. cruzi
Protocol: A total of 22 rhesus macaques that had been confirmed to be serologically- and PCR-positive for T. cruzi were utilized in these studies. Using 19 animals in the treatment group provided 85% power of detecting 100% efficacy. The 19 animals were treated with a 30 mg/kg dose of AN15368 delivered in food treats once a day for 60 days. The remaining three animals on the study were maintained as untreated control animals and received food treats but were not dosed with AN15368.
The selected dose of 30 mg/kg in NHP was determined based upon the following rationale. […] Under light-anesthesia/sedation, peripheral blood samples were collected from each animal prior to treatment and at 7 time points following. Blood analysis (CBC and serum chemistry assays) and physical exams to evaluate the health of the study animals were performed on each animal prior to the beginning of the study and also at three time points during the treatment protocol.
Blood samples from each macaque were collected at various time points and processed for quantification of T. cruzi DNA by real-time qPCR. Between 8-ml of whole blood collected in EDTA anticoagulant tubes was subjected to DNA extraction using the Omega E.Z.N.A. Blood DNA Maxi Kit (Omega Bio-Tek), following the manufacturer's instructions for up to 10 ml whole blood and using a total of 650 μl of elution buffer. Each round of extractions included a negative (no-template) control comprised of 10 ml PBS. The concentration of DNA in the eluted solution was quantified after each extraction using an Epoch microplate spectrophotometer (BioTek).
DNA from each sample was then subjected to a series of two qPCR assays for detection of T. cruzi satellite DNA. […] Positive (DNA extracted from T. cruzi Sylvio X10 clone 4, American Type Culture Collection, ATCC #50800, known concentration 1.7×10^−3 parasite equivalents) and negative (water) controls were included in each PCR plate for both assays. C1000 Touch Bio-Rad CFX96 real-time PCR detection system was used for both assays under the following cycling conditions: (i) initial denaturation, 95°, 3 min; (ii) denaturation, 95° C., 15 s; (iii) annealing, 58° C., 1 min; (iv)×50 cycles. FAM and VIC channels were selected for each read.
Frozen tissues were screened for T. cruzi DNA using 8 mm biopsies (Sklar instruments #96-1130), collecting 3 to 10 individual ˜100 μl tissue punches for each tissue type and one of more pooled sample consisting of five punches from different areas of the tissue, totaling ˜500 μl per pool. The tissues sampled included liver, heart, fat, esophagus, quadricep, bicep, large intestine, and brain, as well as tongue and spleen in a few instances. Two individual and one pooled sample of tissues from an uninfected macaque was collected for each sampling batch. DNA from macaque tissue was extracted and analyzed as previously described (Bustamante, et al., Sci Transl Med 12 (2020)) with the exceptions that the purification was scaled up to accommodate the larger amount of tissue in the pooled samples and the range for the standards was 2.6×10^2-2.6×10^−3 parasite equivalents using the kDNA minicircle S35 and S36 primers.

[2] = system: anti-T. cruzi antibodies; experiment: Luminex-based multiplex serological analysis in macaques; type: in vivo, rhesus macaque (Macaca mulatta); settings: treated macaques, over 42 months after end of treatment
Description: For a number of smaller proteins, fusions of up to 2 individual genes are employed for some target proteins in order to expand the array of antibodies being detected while controlling costs and complexity of the assay. (TritrypDb.org identifiers: Tc1=fusion of TcBrA4_0116860 and TcYC6_0028190; Tc2=fusion of TcBrA4_0088420 and TcBrA4_0101960; Tc3=fusion of TcBrA4_0104680 and TcBrA4_0101980; Tc4=fusion of TcBrA4_0028480 and TcBrA4_0088260; Tc5=fusion of TcYC6_0100010 and TcBrA4_0074300; Tc7=fusion of TcYC6_0083710 and TcBrA4_0130080; Tc8=TcYC6_0037170; Tc11=TcYC6_0124160; Tc17=fusion of TcBrA4_0028230 and TcBrA4_0029760; Kn107=TcCLB.508355.250; G10=TcCLB.504199.20). Macaque antibody binding to individual beads in the Multiplex assays was detected with donkey anti-human IgG (H+L) conjugated to phycoerythrin (Jackson ImmunoResearch) in a 1:200 dilution.

[3] = macaques, 30 mg/kg once a day for 60 days, post-treatment time points, 30 mg/kg

Cc1c(C(=O)N[C@H](C(=O)OCC2CCOCC2)C(C)C)ccc2c1B(O)OC2 [AN15368]
T. cruzi DNA by PCR in post-necropsy tissues ([1]; 9 treated macaques, 84-99 sample sites/animal): negative
overall safety / toxicity ([1]; 60 day course of treatment in NHPs): no overt safety or reproductive health concerns; also recorded: no overt toxicity
adverse events ([1]; in vivo): No adverse events
mean ALT and ALP, levels of lymphocytes and monocytes in blood ([1]; in vivo): mildly elevated
cure of chronically infected rhesus macaques ([1]; in words (FIGS. 4A-4K)): uniformly cures chronically infected rhesus macaques
culture of parasites from blood (hemoculture) [1, 3]: remained negative
parasite DNA in blood (PCR) [1, 3]: remained negative
efficacy / cure ([1]; naturally infected NHPs, 30 mg/kg, 60 days): 100%
antibody levels to recombinant T. cruzi proteins [2]: declines in antibody levels
